The record followed here is US9938261B2, “Heterocyclic compounds and methods of use thereof” (AMBIT BIOSCIENCES CORPORATION, priority 2011, dated 2018).

In assay [1] the target is T1, FLT3 (Homo sapiens, UniProt P36888).
T1 construct: made in house
T1 sequence (P36888 27-993): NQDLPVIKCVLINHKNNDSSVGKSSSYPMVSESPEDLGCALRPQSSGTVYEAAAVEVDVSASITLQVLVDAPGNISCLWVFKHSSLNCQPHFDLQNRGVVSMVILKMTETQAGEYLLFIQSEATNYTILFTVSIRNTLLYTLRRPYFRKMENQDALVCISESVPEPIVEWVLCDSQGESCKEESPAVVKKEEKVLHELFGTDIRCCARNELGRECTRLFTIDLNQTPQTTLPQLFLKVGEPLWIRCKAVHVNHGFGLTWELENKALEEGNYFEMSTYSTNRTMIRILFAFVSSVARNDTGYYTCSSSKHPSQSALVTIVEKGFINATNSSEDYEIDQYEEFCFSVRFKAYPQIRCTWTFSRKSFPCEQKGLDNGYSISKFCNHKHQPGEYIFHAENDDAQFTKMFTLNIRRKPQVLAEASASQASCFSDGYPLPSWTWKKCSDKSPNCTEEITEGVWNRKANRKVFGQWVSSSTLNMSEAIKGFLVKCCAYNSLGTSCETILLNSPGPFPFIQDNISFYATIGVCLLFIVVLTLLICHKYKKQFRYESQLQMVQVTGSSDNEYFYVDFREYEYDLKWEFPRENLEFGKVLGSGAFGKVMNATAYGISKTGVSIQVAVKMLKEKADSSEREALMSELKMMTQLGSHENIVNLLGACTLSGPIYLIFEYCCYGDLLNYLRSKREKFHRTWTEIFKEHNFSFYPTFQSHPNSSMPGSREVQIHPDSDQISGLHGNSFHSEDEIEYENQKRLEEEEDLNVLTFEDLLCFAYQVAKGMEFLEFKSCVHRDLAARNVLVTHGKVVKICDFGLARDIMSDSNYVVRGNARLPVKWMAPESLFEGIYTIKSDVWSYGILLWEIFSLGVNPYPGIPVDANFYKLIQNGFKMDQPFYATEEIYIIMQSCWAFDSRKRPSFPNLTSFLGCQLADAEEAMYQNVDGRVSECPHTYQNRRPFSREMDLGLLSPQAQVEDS
As to the kind of experiment: Competition binding assay, FLT3 Kd. In a few lines: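 First, biotinylated affinity ligands were loaded onto streptavidin magnetic beads and blocked. Kinase, beads and compound were then equilibrated 1 hour at room temperature, washed, and eluted with non-biotinylated ligand. Eluted kinase was measured by qPCR, with Kd fitted from an eleven-point threefold dilution series.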

The target of assay [2] is CSF1R (Homo sapiens, UniProt P07333). Nature of the assay: HEK293 CSF1R phosphorylation MSD assay. The format is cell-based. Set-up: expressed in transfected cells; host or cells: HEK293. The following applies: 2 h compound, human M-CSF 50 ng/mL for 5 min; read-out: HEK293 pCSF1R M-CSF MSD:IC50. In a few lines:
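HEK293 cells expressing CSF1R-FKBP were pretreated 2 h at 37° C with 9 half-log concentrations of compound (0.5% DMSO final), then stimulated 5 min with 50 ng/mL human M-CSF. Lysates captured on biotin-FK506 plates; phosphotyrosine detected by MSD electrochemiluminescence. IC50 versus DMSO, averaged from duplicate plates.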

Chain of CSF1R (P07333 20-972): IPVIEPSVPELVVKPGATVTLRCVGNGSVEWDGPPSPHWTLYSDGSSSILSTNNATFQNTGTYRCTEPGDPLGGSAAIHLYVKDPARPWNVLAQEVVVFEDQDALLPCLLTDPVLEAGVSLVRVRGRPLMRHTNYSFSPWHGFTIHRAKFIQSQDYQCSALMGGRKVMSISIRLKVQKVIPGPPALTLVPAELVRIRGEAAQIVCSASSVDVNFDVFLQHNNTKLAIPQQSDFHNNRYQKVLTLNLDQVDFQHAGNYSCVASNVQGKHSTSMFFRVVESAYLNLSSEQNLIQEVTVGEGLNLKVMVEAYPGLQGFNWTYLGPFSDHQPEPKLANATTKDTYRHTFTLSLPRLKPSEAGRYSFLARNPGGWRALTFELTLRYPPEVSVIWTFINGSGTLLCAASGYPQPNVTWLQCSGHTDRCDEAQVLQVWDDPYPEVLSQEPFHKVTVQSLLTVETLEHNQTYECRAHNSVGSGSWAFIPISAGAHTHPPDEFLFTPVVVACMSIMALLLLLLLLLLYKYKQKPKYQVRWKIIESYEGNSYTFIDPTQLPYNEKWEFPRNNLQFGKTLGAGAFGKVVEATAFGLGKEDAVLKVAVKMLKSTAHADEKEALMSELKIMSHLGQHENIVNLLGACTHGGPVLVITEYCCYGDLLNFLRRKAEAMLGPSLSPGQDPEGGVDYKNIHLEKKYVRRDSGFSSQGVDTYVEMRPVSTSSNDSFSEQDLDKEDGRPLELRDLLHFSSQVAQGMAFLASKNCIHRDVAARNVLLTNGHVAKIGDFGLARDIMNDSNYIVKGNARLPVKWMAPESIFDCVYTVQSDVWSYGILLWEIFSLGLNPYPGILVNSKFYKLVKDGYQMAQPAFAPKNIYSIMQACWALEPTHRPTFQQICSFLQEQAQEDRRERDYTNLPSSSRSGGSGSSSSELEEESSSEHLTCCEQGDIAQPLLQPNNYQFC

The Kd is the free concentration of one partner at which half of the binding sites on the other are occupied at equilibrium, for simple one-to-one binding. Low readings indicate higher affinity, high ones lower affinity. As usually defined, the IC50 is the point on the concentration scale where inhibition reaches its midpoint. With `O[C@@H]1CCCC[C@H]1Nc1nc2ccc(Cn3cnc4cccnc43)cc2o1` [Example 56, (1R,2R)-2-((6-((3H-imidazo[4,5-b]pyridin-3-yl)methyl)benzo[d]oxazol-2-yl)amino)cyclohexanol], the Kd in assay [1] lay within 200 to 1000 nM. The 50% inhibitory concentration (IC50) in assay [2] fell in the range of 50 to 200 nM.
In the same order, the values of `O[C@@H]1Cc2ccccc2[C@H]1Nc1nc2ccc(Cn3cnc4cccnc43)cc2o1` [Example 57, (1R,2R)-1-((6-((3H-imidazo[4,5-b]pyridin-3-yl)methyl)benzo[d]oxazol-2-yl)amino)-2,3-dihydro-1H-inden-2-ol] are 200 to 1000 nM and 50 to 200 nM.
For `ON=C1CCCC[C@H]1Nc1nc2ccc(Cn3cnc4cccnc43)cc2s1` [Example 58, (R)-2-((6-((3H-imidazo[4,5-b]pyridin-3-yl)methyl)benzo[d]thiazol-2-yl)amino)cyclohexanone oxime] the same measures were 1000 to 5000 nM and 50 to 200 nM.
In the same order, the values of `O[C@@H]1CCCC[C@H]1Nc1nc2ccc(Cn3cnc4cc(Br)cnc43)cc2o1` [Example 61, (1R,2R)-2-((6-((6-bromo-3H-imidazo[4,5-b]pyridin-3-yl)methyl)benzo[d]oxazol-2-yl)amino)cyclohexanol] are no more than 200 nM and no more than 50 nM.
On to `O[C@@H]1Cc2ccccc2[C@H]1Nc1nc2ccc(Cn3cnc4cc(Br)cnc43)cc2o1` [Example 62, (1R,2R)-1-((6-((6-bromo-3H-imidazo[4,5-b]pyridin-3-yl)methyl)benzo[d]oxazol-2-yl)amino)-2,3-dihydro-1H-inden-2-ol], for which, in assay [1], the equilibrium dissociation constant (Kd) was 200 to 1000 nM. Besides, the concentration for half-maximal inhibition (IC50) in assay [2] is no more than 50 nM.
For `OC[C@@H](Nc1nc2ccc(Cn3cnc4cccnc43)cc2s1)C1CCCCC1` [Example 63, (S)-2-((6-((3H-imidazo[4,5-b]pyridin-3-yl)methyl)benzo[d]thiazol-2-yl)amino)-2-cyclohexylethanol], the Kd in assay [1] is no more than 200 nM. The concentration for half-maximal inhibition (IC50) in assay [2] fell in the range of 50 to 200 nM.
In assay [1], `OC[C@H](Nc1nc2ccc(Cn3cnc4cccnc43)cc2s1)C1CCCCC1` [Example 64, (R)-2-((6-((3H-imidazo[4,5-b]pyridin-3-yl)methyl)benzo[d]thiazol-2-yl)amino)-2-cyclohexylethanol] showed an equilibrium dissociation constant (Kd) of 200 to 1000 nM. In addition, the half-maximal inhibitory concentration (IC50) in assay [2] is 200 to 500 nM.
In the same order, the values of `COc1cc2c(cc1C#N)ncn2Cc1ccc2nc(N[C@@H]3CCCC[C@H]3O)sc2c1` [Example 65, 1-((2-(((1R,2R)-2-hydroxycyclohexyl)amino)benzo[d]thiazol-6-yl)methyl)-6-methoxy-1H-benzo[d]imidazole-5-carbonitrile] are 1000 to 5000 nM and 50 to 200 nM.
On to `OC[C@@H]1CCCC[C@H]1Nc1nc2ccc(Cn3cnc4cccnc43)cc2s1` [Example 66, ((1R,2R)-2-((6-((3H-imidazo[4,5-b]pyridin-3-yl)methyl)benzo[d]thiazol-2-yl)amino)cyclohexyl)methanol], for which the Kd in assay [1] is greater than 5000 nM. In addition, in assay [2], the half-maximal inhibitory concentration (IC50) lay in the range of 50 to 200 nM.
With `CC(=O)c1cnc2c(c1)ncn2Cc1ccc2nc(N[C@@H]3CCCC[C@H]3O)sc2c1` [Example 73, 1-(3-((2-(((1R,2R)-2-hydroxycyclohexyl)amino)benzo[d]thiazol-6-yl)methyl)-3H-imidazo[4,5-b]pyridin-6-yl)ethanone], in assay [1], the Kd was in the range of 1000 to 5000 nM. Moreover, the IC50 in assay [2] was no more than 50 nM.
For the compound `CS(=O)(=O)c1cnc2c(c1)ncn2Cc1ccc2nc(N[C@@H]3CCCC[C@H]3O)sc2c1` [Example 74, (1R,2R)-2-((6-((6-(methylsulfonyl)-3H-imidazo[4,5-b]pyridin-3-yl)methyl)benzo[d]thiazol-2-yl)amino)cyclohexanol], the Kd in assay [1] was no more than 200 nM. For the same compound, the concentration for half-maximal inhibition (IC50) in assay [2] lay within 50 to 200 nM.
In the same order, the values of `OC1(CNc2nc3ccc(Cn4cnc5cccnc54)cc3s2)CCCCC1` [Example 75, 1-(((6-((3H-imidazo[4,5-b]pyridin-3-yl)methyl)benzo[d]thiazol-2-yl)amino)methyl)cyclohexanol] are 1000 to 5000 nM and 50 to 200 nM.
For `OCC1(CNc2nc3ccc(Cn4cnc5cccnc54)cc3s2)CCCCC1` [Example 76, (1-(((6-((3H-imidazo[4,5-b]pyridin-3-yl)methyl)benzo[d]thiazol-2-yl)amino)methyl)cyclohexyl)methanol] the same measures were no more than 200 nM and 50 to 200 nM.
In the same order, the values of `Cn1cc(-c2cn(Cc3ccc4nc(N[C@@H]5CCCC[C@H]5O)oc4c3)cn2)cn1` [Example 77, (1R,2R)-2-((6-((4-(1-methyl-1H-pyrazol-4-yl)-1H-imidazol-1-yl)methyl)benzo[d]oxazol-2-yl)amino)cyclohexanol] are 1000 to 5000 nM and 50 to 200 nM.
In assay [1], `O[C@@H]1Cc2ccccc2[C@H]1Nc1nc2ccc(Cn3cnc4ccc(Br)nc43)cc2s1` [Example 80, (1R,2R)-1-((6-((5-bromo-3H-imidazo[4,5-b]pyridin-3-yl)methyl)benzo[d]thiazol-2-yl)amino)-2,3-dihydro-1H-inden-2-ol] showed a Kd of 200 to 1000 nM. For the same compound, the IC50 in assay [2] is no more than 50 nM.
In the same order, the values of `O=C(O)c1cnc2c(c1)ncn2Cc1ccc2nc(N[C@@H]3CCCC[C@H]3O)sc2c1` [Example 81, 3-((2-(((1R,2R)-2-hydroxycyclohexyl)amino)benzo[d]thiazol-6-yl)methyl)-3H-imidazo[4,5-b]pyridine-6-carboxylic acid] are 1000 to 5000 nM and greater than 500 nM.
Consider `O[C@@H]1CCCC[C@H]1Nc1nc2ccc(Cn3cnc4cc(CN5CCOCC5)cnc43)cc2s1` [Example 82, (1R,2R)-2-((6-((6-(morpholinomethyl)-3H-imidazo[4,5-b]pyridin-3-yl)methyl)benzo[d]thiazol-2-yl)amino)cyclohexanol], for which the Kd in assay [1] is 1000 to 5000 nM. In assay [2], the IC50 is 200 to 500 nM.
For `OCc1cnc2c(c1)ncn2Cc1ccc2nc(N[C@@H]3CCCC[C@H]3O)sc2c1` [Example 84, (1R,2R)-2-((6-((6-(hydroxymethyl)-3H-imidazo[4,5-b]pyridin-3-yl)methyl)benzo[d]thiazol-2-yl)amino)cyclohexanol] the same measures were 1000 to 5000 nM and no more than 50 nM.
For `CSc1cnc2c(c1)ncn2Cc1ccc2nc(N[C@@H]3CCCC[C@H]3O)sc2c1` [Example 85, (1R,2R)-2-((6-((6-(methylthio)-3H-imidazo[4,5-b]pyridin-3-yl)methyl)benzo[d]thiazol-2-yl)amino)cyclohexanol] the same measures were 200 to 1000 nM and no more than 50 nM.
Take `CSCc1cnc2c(c1)ncn2Cc1ccc2nc(N[C@@H]3CCCC[C@H]3O)sc2c1` [Example 86, (1R,2R)-2-((6-((6-((methylthio)methyl)-3H-imidazo[4,5-b]pyridin-3-yl)methyl)benzo[d]thiazol-2-yl)amino)cyclohexanol]: the equilibrium dissociation constant (Kd) in assay [1] lay within 200 to 1000 nM. Further, the half-inhibitory concentration (IC50) in assay [2] was no more than 50 nM.
For `N#Cc1ccc2ncn(Cc3ccc4nc(N[C@@H]5CCCC[C@H]5O)sc4c3)c2n1` [Example 87, 3-((2-(((1R,2R)-2-hydroxycyclohexyl)amino)benzo[d]thiazol-6-yl)methyl)-3H-imidazo[4,5-b]pyridine-5-carbonitrile] the same measures were 200 to 1000 nM and no more than 50 nM.
`C#Cc1cnc2c(c1)ncn2Cc1ccc2nc(N[C@@H]3CCCC[C@H]3O)sc2c1` [Example 96, (1R,2R)-2-((6-((6-ethynyl-3H-imidazo[4,5-b]pyridin-3-yl)methyl)benzo[d]thiazol-2-yl)amino)cyclohexanol] had an equilibrium dissociation constant (Kd) in assay [1] of no more than 200 nM. Moreover, the 50% inhibitory concentration (IC50) in assay [2] is no more than 50 nM.
For `O[C@@H]1CCCC[C@H]1Nc1nc2ccc(Cn3cnc4cc(N5CCOCC5)cnc43)cc2s1` [Example 97, (1R,2R)-2-((6-((6-morpholino-3H-imidazo[4,5-b]pyridin-3-yl)methyl)benzo[d]thiazol-2-yl)amino)cyclohexanol] the same measures were 200 to 1000 nM and no more than 50 nM.
`C=Cc1cnc2c(c1)ncn2Cc1ccc2nc(N[C@@H]3CCCC[C@H]3O)sc2c1` [Example 98, (1R,2R)-2-((6-((6-vinyl-3H-imidazo[4,5-b]pyridin-3-yl)methyl)benzo[d]thiazol-2-yl)amino)cyclohexanol] returned a Kd in assay [1] of 200 to 1000 nM. Besides, the IC50 in assay [2] is no more than 50 nM.
